Patent US11667645B2, “Granzyme B directed imaging and therapy” (CytoSite Biopharma Inc., priority 2018, dated 2023)

biological target: Granzyme B (human lymphocytes) (Homo sapiens (Human), UniProt P10144); experiment: human Granzyme B biochemical assay; details: Granzyme B (human lymphocytes) 5 nM, substrate Ac-IETD-AFC 200 μM, Cpd incubation with enzyme 30 mins, 22° C., read time 60 mins; read-out: IC50
Excerpt: The compounds of Formula I-VIII described above can be tested using the human Granzyme B biochemical assay provided below.
Materials: • 1. Granzyme B (human lymphocytes) Enzyme: Enzo Lifesciences, Cat #ALX-200-602-0010 • 2. Substrate (Ac-IETD-AFC): Enzo Lifesciences, Cat #ALX-260-110-M010 • 3. Standard inhibitor (Compound 20-Isomer3): Synthesized internally in TCG • 4. Dimethyl sulfoxide (DMSO): Sigma-Aldrich, Cat #41639 • 5. HEPES: Gibco, Cat #15630-080 • 6. Calcium chloride: Sigma-Aldrich, Cat #C-5080 • 7. Distilled water: Gibco, Cat #15230-162 • 8. Bovine serum albumin (BSA): Sigma-Aldrich, Cat #A3059 • 9. Black, clear bottom PDL plate (384 wells): Greiner bio-one, Cat #781946 • 10. Polypropylene plate (384 wells): Corning, Cat #3657 Assay Buffer Composition:
Compound Preparation: • 1. DMSO is added to the respective compound vial to make 10 mM Compound stock solution, which is stored at −20° C. • 2. 10 mM Compound stock solution is thawed and 1 mM DMSO stock solution is prepared by adding 45 μl of DMSO to 5 μl of 10 mM compound stock solution. • 3. 1 mM DMSO stock solution is serially diluted (3.16 fold) by adding 10 μl of 1 mM DMSO stock to 21.6 μl of DMSO and mixed well. 10 μl of the resulting solution is then added to 21.6 μl of DMSO and mixed well. This process is continued to create 11 dilution points for the assay standard inhibitor and 8 dilution points for test compounds in 384 well polypropylene plate. • 4. 2 μl of each dilution are dispensed in assay ready plate. • 5. Each well is then diluted 25 fold by adding 48 μl of assay buffer to 2 μl of compound in assay ready plate to make Compound working stock. Enzyme Preparation: • 1. Supplied Granzyme B (human lymphocytes) enzyme is reconstituted to 1 mg/ml (about 31.25 μM) and 1 μl aliquots are kept in −80° C. • 2. 1 μl aliquot is diluted to 625 nM by adding 49 μl of assay buffer containing 0.1% BSA and gently mixed. • 3. 10 nM enzyme working stock is prepared by adding assay buffer containing 0.1% BSA. Substrate Preparation: • 1. Supplied substrate (Ac-IETD-AFC) is reconstituted by adding DMSO to make 10 mM stock, aliquoted and stored in −80° C. • 2. 4 mM substrate mid stock is prepared by adding DMSO. • 3. Substrate working stock i.e. 800 μM is prepared by adding assay buffer. Assay Protocol: • 1. 10 μl of serially diluted Compound working stock (start dose 40 μM) is added from assay ready plate to assay plate according to the plate map. • 2. Positive control (40 μM of standard inhibitor) and negative control (4% DMSO buffer) are added to the respective wells. • 3. 20 μl of Enzyme working stock is added to assay plate and gently mixed. • 4. The plate is incubated at 22° C. for 30 mins and spun at 130 g for 1 minute. • 5. After incubation, 10 μl of Substrate working stock is added to respective wells and mixed (Assay plate is maintained in dark after substrate addition). • 6. The plate is incubated at 22° C. for 60 mins and spun at 130 g for 1 minute. • 7. Fluorescence read (RFU) (Ex: 400 nm/Em: 505 nm) is taken after 60 mins in EnVision Multimode plate reader. Final Assay Concentration:
Data Analysis: • 1. The RFU read is analyzed to calculate percent inhibition by normalizing with positive and negative controls taken as 100% and 0% effect respectively in Microsoft excel. • 2. Graph is generated by putting the analyzed data in GraphPad prism 5.0 software to get IC50 value for each compound.

Chain of Granzyme B (human lymphocytes) (P10144 21-247): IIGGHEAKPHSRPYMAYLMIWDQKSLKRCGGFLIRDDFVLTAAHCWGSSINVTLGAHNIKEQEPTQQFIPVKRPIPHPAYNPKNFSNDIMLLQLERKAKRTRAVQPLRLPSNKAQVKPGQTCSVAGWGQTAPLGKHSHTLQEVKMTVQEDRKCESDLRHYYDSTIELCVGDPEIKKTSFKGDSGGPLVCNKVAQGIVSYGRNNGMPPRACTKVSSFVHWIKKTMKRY

SMILES	IC50 [µM]
O=C(O)CC[C@H](NC(=O)Cc1ccccc1)C(=O)N[C@H]1CCc2cccc3c2N(C1=O)[C@H](C(=O)NCc1c[nH]nn1)C3 [Compound C019, (S)-4-{(2S,5S)-4-Oxo-2-[(1H-[1,2,3]triazol-4-ylmethyl)-carbamoyl]-1,2,4,5,6,7-hexahydro-azepino[3,2,1-hi]indol-5-ylcarbamoyl}-4-phenylacetylamino-butyric acid]	> 5
O=C(Cc1ccccc1)N[C@H](C(=O)N[C@H]1CCc2cccc3c2N(C1=O)[C@H](C(=O)NCc1c[nH]nn1)C3)c1ccccc1 [Compound C020, (2S,5S)-4-Oxo-5-((S)-2-phenyl-2-phenylacetylamino-acetylamino)-1,2,4,5,6,7-hexahydro-azepino[3,2,1-hi]indole-2-carboxylic acid (1H-[1,2,3]triazol-4-ylmethyl)-amide]	> 5
O=C(Cc1ccccc1)N[C@@H](Cc1ccc(O)cc1)C(=O)N[C@H]1CCc2cccc3c2N(C1=O)[C@H](C(=O)NCc1c[nH]nn1)C3 [Compound C021, (2S,5S)-5-[(S)-3-(4-Hydroxy-phenyl)-2-phenylacetylamino-propionylamino]-4-oxo-1,2,4,5,6,7-hexahydro-azepino[3,2,1-hi]indole-2-carboxylic acid (1H-[1,2,3]triazol-4-ylmethyl)-amide]	1 to 5
O=C(Cc1ccccc1)N[C@@H](Cc1ccc(F)cc1)C(=O)N[C@H]1CCc2cccc3c2N(C1=O)[C@H](C(=O)NCc1c[nH]nn1)C3 [Compound C022, (2S,5S)-5-[(S)-3-(4-Fluoro-phenyl)-2-phenylacetylamino-propionylamino]-4-oxo-1,2,4,5,6,7-hexahydro-azepino[3,2,1-hi]indole-2-carboxylic acid (1H-[1,2,3]triazol-4-ylmethyl)-amide]	> 5
CC(=O)NCC(=O)N[C@H]1CCc2cccc3c2N(C1=O)[C@H](C(=O)NCc1c[nH]nn1)C3 [Compound C023, (2S,5S)-5-(2-Acetylamino-acetylamino)-4-oxo-1,2,4,5,6,7-hexahydro-azepino[3,2,1-hi]indole-2-carboxylic acid (1H-[1,2,3]triazol-4-ylmethyl)-amide]	> 5
CC(=O)N[C@@H](C)C(=O)N[C@H]1CCc2cccc3c2N(C1=O)[C@H](C(=O)NCc1c[nH]nn1)C3 [Compound C024, (2S,5S)-5-((S)-2-Acetylamino-propionylamino)-4-oxo-1,2,4,5,6,7-hexahydro-azepino[3,2,1-hi]indole-2-carboxylic acid (1H-[1,2,3]triazol-4-ylmethyl)-amide]	> 5
CC(=O)N[C@@H](Cc1ccccc1)C(=O)N[C@H]1CCc2cccc3c2N(C1=O)[C@H](C(=O)NCc1c[nH]nn1)C3 [Compound C026, (2S,5S)-5-((S)-2-Acetylamino-3-phenyl-propionylamino)-4-oxo-1,2,4,5,6,7-hexahydro-azepino[3,2,1-hi]indole-2-carboxylic acid (1H-[1,2,3]triazol-4-ylmethyl)-amide]	1 to 5
CC(=O)N[C@@H](CC(C)C)C(=O)N[C@H]1CCc2cccc3c2N(C1=O)[C@H](C(=O)NCc1c[nH]nn1)C3 [Compound C027, (2S,5S)-5-((S)-2-Acetylamino-4-methyl-pentanoylamino)-4-oxo-1,2,4,5,6,7-hexahydro-azepino[3,2,1-hi]indole-2-carboxylic acid (1H-[1,2,3]triazol-4-ylmethyl)-amide]	1 to 5
CC(=O)N[C@@H](CO)C(=O)N[C@H]1CCc2cccc3c2N(C1=O)[C@H](C(=O)NCc1c[nH]nn1)C3 [Compound C029, (2S,5S)-5-((S)-2-Acetylamino-3-hydroxy-propionylamino)-4-oxo-1,2,4,5,6,7-hexahydro-azepino[3,2,1-hi]indole-2-carboxylic acid (1H-[1,2,3]triazol-4-ylmethyl)-amide]	> 5
CC(=O)N[C@@H](CCC(=O)O)C(=O)N[C@H]1CCc2cccc3c2N(C1=O)[C@H](C(=O)NCc1c[nH]nn1)C3 [Compound C030, (S)-4-Acetylamino-4-{(2S,5S)-4-oxo-2-[(1H-[1,2,3]triazol-4-ylmethyl)-carbamoyl]-1,2,4,5,6,7-hexahydro-azepino[3,2,1-hi]indol-5-ylcarbamoyl}-butyric acid]	> 5
